IC50 data for one molecule are collected here from ChEMBL document CHEMBL1151250, “A DNA-damaging oxoaporphine alkaloid from Piper caninum” (J Nat Prod, 2004).

As a reminder, the IC50 is the concentration at which inhibition is half-maximal.

Type in all cases: functional, organism-based
The test system of assay [1] is Saccharomyces cerevisiae. The assay is described as follows: Antimicrobial activity against Saccharomyces cerevisiae RS321NpRAD52 in presence of glucose.
Assay [2] concerns Saccharomyces cerevisiae. The assay is described as follows: Antimicrobial activity against Saccharomyces cerevisiae RS321NpRAD52 in presence of galactose.
The subject of assay [3] is Saccharomyces cerevisiae. Kind of assay: Antimicrobial activity against Saccharomyces cerevisiae RS321NYCp50 in presence of galactose.

Turning to `CN1C(=O)C(=O)c2cc3c(c4c2c1cc1ccccc14)OCO3` [CEPHARADIONE A], the values for the 50% inhibitory concentration (IC50) in the assay on Saccharomyces cerevisiae [1], in the assay on Saccharomyces cerevisiae [2] and with Saccharomyces cerevisiae [3] were 0.05 µg/mL, 115 µg/mL and 0.2 µg/mL, respectively.
